Laboratory results as given in US20260183407A1, “DYRK/CLK PROTACS AND USES THEREOF” (Arizona Board of Regents on Behalf of the University of …, priority 2022, published 2026).

Experiments:
DYRK1B [1] = target: T1, DYRK1B (Homo sapiens, UniProt Q9Y463); experiment: KdELECT kinase binding assay (Eurofins), DYRK1B; conditions: 11-point 3-fold dilution series, qPCR readout; read-out: Binding Affinity (Kd) DYRK1B
T1 construct: purchased Eurofins; host or cells: E. coli BL21-derived (T7 phage display) or HEK-293
T1 sequence (Q9Y463 whole entry, species assumed): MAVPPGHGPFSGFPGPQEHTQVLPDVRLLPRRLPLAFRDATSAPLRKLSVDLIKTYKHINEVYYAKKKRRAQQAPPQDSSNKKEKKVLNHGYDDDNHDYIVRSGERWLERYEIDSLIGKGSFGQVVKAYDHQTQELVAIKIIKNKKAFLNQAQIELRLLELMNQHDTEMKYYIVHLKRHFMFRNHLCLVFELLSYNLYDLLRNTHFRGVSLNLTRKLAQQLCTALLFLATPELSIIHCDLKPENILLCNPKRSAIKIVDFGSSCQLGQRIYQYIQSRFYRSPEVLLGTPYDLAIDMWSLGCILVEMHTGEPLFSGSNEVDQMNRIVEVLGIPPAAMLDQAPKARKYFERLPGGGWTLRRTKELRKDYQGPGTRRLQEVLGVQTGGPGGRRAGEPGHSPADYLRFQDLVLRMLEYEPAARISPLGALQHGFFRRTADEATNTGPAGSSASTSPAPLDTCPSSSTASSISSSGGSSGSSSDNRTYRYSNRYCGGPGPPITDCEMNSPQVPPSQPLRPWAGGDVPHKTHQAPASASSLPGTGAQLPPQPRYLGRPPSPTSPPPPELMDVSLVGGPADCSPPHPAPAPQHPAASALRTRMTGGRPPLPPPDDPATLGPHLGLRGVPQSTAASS
Protocol: (§1) KDs were obtained from Eurofins who used the following procedure: Kinase tagged T7 phase strains were prepared in an E. coli host derived from the BL21 strain. E. coli were grown to log-phase and infected with T7 phage and incubated with shaking at 32° C. until lysis. The lysates were centrifuged and filtered to remove cell debris. The remaining kinases were produced in HEK-293 cells and subsequently tagged with DNA for qPCR detection. Streptavidin-coated magnetic beads were treated with biotinylated small molecule ligands for 30 minutes at room temperature to generate affinity resins for kinase assays. The liganded beads were blocked with excess biotin and washed with locking buffer (SeaBlock (Pierce), 1% BSA, 0.05% Tween 20, 1 mM DTT) to remove unbound ligand and to reduce non-specific binding. Binding reactions were assembled by combining kinases, liganded affinity beads, and test compounds in 1× binding buffer (20% SeaBlock, 0.17× PBS, 0.05% Tween 20, 6 mM DTT). Test compounds were prepared as 111X stocks in 100% DMSO. Kds were determined using a 11-poin 3-fold compound dilution series with three DMSO control points. All compounds for Kd measurements are distributed by acoustic transfer (non-contact dispensing) in 100% DMSO. The compounds were then diluted directly into the assays such that the final concentration of DMSO was 0.9%. All reactions performed in polypropylene 384-well plate. Each was a final volume of 0.02 mL. The assay plates were incubated at room temperature with shaking for 1 hour and the affinity beads were washed with wash buffer (1×PBS, 0.05% Tween 20). The beads were then resuspended in elution buffer (1X PBS, 0.05% Tween 20, 0.5 µM nonbiotinylated affinity ligand) and incubated at room temperature with shaking for 30 minutes. The kinase concentration in the eluates was measured by qPCR.

DYRK1A [2] = target: T2, DYRK1A (Homo sapiens, UniProt Q13627); experiment: HiBiT split luciferase assay of targeted degradation of DYRK1A in Flp-In T-REx 293 cells; format: cell-based; conditions: 300 nM compound, 24 h, HiBiT-tagged DYRK1A in Flp-In T-REx 293 cells, normalized to vehicle; read-out: Relative Degradation at 300 nM DYRK1A
T2 construct: purchased Eurofins; host or cells: E. coli BL21-derived (T7 phage display) or HEK-293
Description: (§2) The Flp-In T-REx 293 Cell Line and the pcDNA5/FRT/TO vector (Invitrogen) were used to generate stable cell clones for tetracyclin-inducible expression of DYRK1A and DYRK1B. These cells contain a single stably integrated Flp recognition target (FRT) site, which allows for site-specific integration of the expression cassette by the Flp (Flippase) recombinase. DYRK1 constructs were designed to contain a C-terminal HiBiT tag for quantitative detection of HiBiT-tagged proteins in cellular lysates with the help a split luciferase assay (Nano-Glo HiBiT Lytic Detection System, Promega). To monitor the targeted degradation of DYRK1A or DYRK1B, cells were seeded in 96-well plates (10,000 cells/per well) and treated with doxycyclineinal concentration 2 μg/ml) to induce DYRK1 expression. Compounds with presumed PROTAC activity were administered 24 h after seeding. After further incubation for 24 h, cells were grossly and microscopically inspected for overt toxicity. Cells were lysed in 100 μL ice-cold passive lysis buffer (PLB, Promega) by orbital shaking (30 min on ice) before lysates were centrifuged in PCR tube (20 min 20,000 g, RT). A 10 μl aliquot of the supernatant was subjected to the HiBiT lytic assay. Luminescence was quantified in an Orion Microplate luminometer (Berthold Detection System, Germany). All compounds were tested in duplicate or triplicate wells (technical replicates) and at least two independent experiments. Relative degradation was calculated by normalization to vehicle-treated control samples.

DYRK1B [3] = target: T1, DYRK1B; experiment: HiBiT split luciferase assay of targeted degradation of DYRK1B in Flp-In T-REx 293 cells; format: cell-based; conditions: 300 nM compound, 24 h, HiBiT-tagged DYRK1B in Flp-In T-REx 293 cells, normalized to vehicle; read-out: Relative Degradation at 300 nM DYRK1B
Description: as §2

DYRK1A [4] = target: T2, DYRK1A; experiment: KdELECT kinase binding assay (Eurofins), DYRK1A; conditions: 11-point 3-fold dilution series, qPCR readout; read-out: Binding Affinity (Kd) DYRK1A
Protocol: as §1

| Kd (DYRK1B [1]) [nM] | inhibition at 0.3 µM (DYRK1A [2]) [%] | inhibition at 0.3 µM (DYRK1B [3]) [%] | Kd (DYRK1A [4]) [nM] | SMILES |
| --- | --- | --- | --- | --- |
| 10 to 100 | 30 to 60 | < 30 | < 10 | Cc1nc2ccc(-c3ccnc(N)c3)nc2n1-c1ccc(N2CCN(CCOCCOCCC(=O)N3CCN(Cc4ccc(CNc5cccc6c5CN(C5CCC(=O)NC5=O)C6=O)cc4)CC3)CC2)c(F)c1 (stereo not shown) [Compound 10, 3-(4-((4-((4-(3-(2-(2-(4-(4-(5-(2-aminopyridin-4-yl)-2-methyl-3H-imidazo[4,5-b]pyridin-3-yl)-2-fluorophenyl)piperazin-1-yl)ethoxy)ethoxy)propanoyl)piperazin-1-yl)methyl)benzyl)amino)-1-oxoisoindolin-2-yl)piperidine-2,6-dione] |
| < 10 | < 30 | < 30 | < 10 | Cc1ncsc1-c1ccc(CNC(=O)[C@@H]2C[C@@H](O)CN2C(=O)[C@@H](NC(=O)CCOCCOCCOCCOCCOCCN2CCN(c3ccc(-n4c(C)nc5ccc(-c6ccnc(N)c6)nc54)cc3F)CC2)C(C)(C)C)cc1 [Compound 4, (2S,4R)-1-((S)-1-(4-(4-(5-(2-aminopyridin-4-yl)-2-methyl-3H-imidazo[4,5-b]pyridin-3-yl)-2-fluorophenyl)piperazin-1-yl)-20-(tert-butyl)-18-oxo-3,6,9,12,15-pentaoxa-19-azahenicosan-21-oyl)-4-hydroxy-N-(4-(4-methylthiazol-5-yl)benzyl)pyrrolidine-2-carboxamide] |
| < 10 | < 30 | < 30 | < 10 | Cc1ncsc1-c1ccc(CNC(=O)[C@@H]2C[C@@H](O)CN2C(=O)[C@@H](NC(=O)CCOCCOCCN2CCN(c3ccc(-n4c(C)nc5ccc(-c6ccnc(N)c6)nc54)cc3F)CC2)C(C)(C)C)cc1 [Compound 1, (2S,4R)-1-((S)-2-(3-(2-(2-(4-(4-(5-(2-aminopyridin-4-yl)-2-methyl-3H-imidazo[4,5-b]pyridin-3-yl)-2-fluorophenyl)piperazin-1-yl)ethoxy)ethoxy)propanamido)-3,3-dimethylbutanoyl)-4-hydroxy-N-(4-(4-methylthiazol-5-yl)benzyl)pyrrolidine-2-carboxamide] |
| < 10 | 30 to 60 | 30 to 50 | < 10 | Cc1nc2ccc(-c3ccnc(N)c3)nc2n1-c1ccc(N2CCN(CCOCCOCCOCCOCCNc3cccc4c3C(=O)N(C3CCC(=O)NC3=O)C4=O)CC2)c(F)c1 (stereo not shown) [Compound 7, 4-((14-(4-(4-(5-(2-aminopyridin-4-yl)-2-methyl-3H-imidazo[4,5-b]pyridin-3-yl)-2-fluorophenyl)piperazin-1-yl)-3,6,9,12-tetraoxatetradecyl)amino)-2-(2,6-dioxopiperidin-3-yl)isoindoline-1,3-dione, N,N-Diisopropylethylamine] |
| < 10 | > 60 | 30 to 50 | < 10 | Cc1nc2ccc(-c3ccnc(N)c3)nc2n1-c1ccc(CN2CCN(CC#Cc3ccc(N4CCC(C(=O)N5CCC(n6cc(CNc7cccc8c7C(=O)N(C7CCC(=O)NC7=O)C8=O)cn6)CC5)CC4)nc3)CC2)cc1 (stereo not shown) [Compound 25, 4-(((1-(1-(1-(5-(3-(4-(4-(5-(2-aminopyridin-4-yl)-2-methyl-3H-imidazo[4,5-b]pyridin-3-yl)benzyl)piperazin-1-yl)prop-1-yn-1-yl)pyridin-2-yl)piperidine-4-carbonyl)piperidin-4-yl)-1H-pyrazol-4-yl)methyl)amino)-2-(2,6-dioxopiperidin-3-yl)isoindoline-1,3-dione] |
| < 10 | < 30 | < 30 | < 10 | Cc1ncsc1-c1ccc(CNC(=O)[C@@H]2C[C@@H](O)CN2C(=O)[C@@H](NC(=O)CCOCCOCCOCCOCCN2CCN(c3ccc(-n4c(C)nc5ccc(-c6ccnc(N)c6)nc54)cc3F)CC2)C(C)(C)C)cc1 [Compound 3, (2S,4R)-1-((S)-1-(4-(4-(5-(2-aminopyridin-4-yl)-2-methyl-3H-imidazo[4,5-b]pyridin-3-yl)-2-fluorophenyl)piperazin-1-yl)-17-(tert-butyl)-15-oxo-3,6,9,12-tetraoxa-16-azaoctadecan-18-oyl)-4-hydroxy-N-(4-(4-methylthiazol-5-yl)benzyl)pyrrolidine-2-carboxamide] |
| 10 to 100 | > 60 | > 50 | < 10 | Cc1nc2ccc(-c3ccnc(N)c3)nc2n1-c1ccc(N2CCN(CC#Cc3ccc(N4CCC(C(=O)N5CCC(n6cc(CNc7cccc8c7C(=O)N(C7CCC(=O)NC7=O)C8=O)cn6)CC5)CC4)nc3)CC2)c(F)c1 (stereo not shown) [Compound 18, 4-(((1-(1-(1-(5-(3-(4-(4-(5-(2-aminopyridin-4-yl)-2-methyl-3H-imidazo[4,5-b]pyridin-3-yl)-2-fluorophenyl)piperazin-1-yl)prop-1-yn-1-yl)pyridin-2-yl)piperidine-4-carbonyl)piperidin-4-yl)-1H-pyrazol-4-yl)methyl)amino)-2-(2,6-dioxopiperidin-3-yl)isoindoline-1,3-dione] |
| 10 to 100 | 30 to 60 | < 30 | < 10 | Cc1nc2ccc(-c3ccnc(N)c3)nc2n1-c1ccc(N2C[C@@H]3C[C@H]2CN3CC#Cc2ccc(N3CCC(C(=O)N4CCC(n5cc(CNc6cccc7c6C(=O)N(C6CCC(=O)NC6=O)C7=O)cn5)CC4)CC3)nc2)c(F)c1 (stereo partly drawn) [Compound 20, 4-(((1-(1-(1-(5-(3-((1S,4S)-5-(4-(5-(2-aminopyridin-4-yl)-2-methyl-3H-imidazo[4,5-b]pyridin-3-yl)-2-fluorophenyl)-2,5-diazabicyclo[2.2.1]heptan-2-yl)prop-1-yn-1-yl)pyridin-2-yl)piperidine-4-carbonyl)piperidin-4-yl)-1H-pyrazol-4-yl)methyl)amino)-2-(2,6-dioxopiperidin-3-yl)isoindoline-1,3-dione] |
| 10 to 100 | > 60 | > 50 | 10 to 100 | Cc1nc2ccc(-c3ccnc(N)c3)nc2n1-c1ccc(N2CCN(CC#Cc3cncc(N4CCC(C(=O)N5CCC(n6cc(CNc7cccc8c7C(=O)N(C7CCC(=O)NC7=O)C8=O)cn6)CC5)CC4)n3)CC2)c(F)c1 (stereo not shown) [Compound 32, 4-(((1-(1-(1-(6-(3-(4-(4-(5-(2-aminopyridin-4-yl)-2-methyl-3H-imidazo[4,5-b]pyridin-3-yl)-2-fluorophenyl)piperazin-1-yl)prop-1-yn-1-yl)pyrazin-2-yl)piperidine-4-carbonyl)piperidin-4-yl)-1H-pyrazol-4-yl)methyl)amino)-2-(2,6-dioxopiperidin-3-yl)isoindoline-1,3-dione] |

| SMILES | Kd (DYRK1B [1]) [nM] | inhibition at 0.3 µM (DYRK1A [2]) [%] | inhibition at 0.3 µM (DYRK1B [3]) [%] | Kd (DYRK1A [4]) [nM] |
| --- | --- | --- | --- | --- |
| Cc1nc2ccc(-c3ccnc(N)c3)nc2n1-c1ccc(N2C3CCC2CN(CC#Cc2ccc(N4CCC(C(=O)N5CCC(n6cc(CNc7cccc8c7C(=O)N(C7CCC(=O)NC7=O)C8=O)cn6)CC5)CC4)nc2)C3)c(F)c1 (stereo not shown) [Compound 21, 4-(((1-(1-(1-(5-(3-(8-(4-(5-(2-aminopyridin-4-yl)-2-methyl-3H-imidazo[4,5-b]pyridin-3-yl)-2-fluorophenyl)-3,8-diazabicyclo[3.2.1]octan-3-yl)prop-1-yn-1-yl)pyridin-2-yl)piperidine-4-carbonyl)piperidin-4-yl)-1H-pyrazol-4-yl)methyl)amino)-2-(2,6-dioxopiperidin-3-yl)isoindoline-1,3-dione] | 100 to 1000 | 30 to 60 | < 30 | 10 to 100 |
